Data published in ChEMBL document CHEMBL1154381, “Mining biologically-active molecules for inhibitors of fatty acid amide hydrolase (FAAH): identification of phenmedipham and amperozide as FAAH inhibitors” (Bioorg Med Chem Lett, 2009).

Legend:
[1] = biological target: T1, Fatty-acid amide hydrolase 1 (Homo sapiens, UniProt O00519); assay: Inhibition of human FAAH
T1 sequence (O00519 whole entry): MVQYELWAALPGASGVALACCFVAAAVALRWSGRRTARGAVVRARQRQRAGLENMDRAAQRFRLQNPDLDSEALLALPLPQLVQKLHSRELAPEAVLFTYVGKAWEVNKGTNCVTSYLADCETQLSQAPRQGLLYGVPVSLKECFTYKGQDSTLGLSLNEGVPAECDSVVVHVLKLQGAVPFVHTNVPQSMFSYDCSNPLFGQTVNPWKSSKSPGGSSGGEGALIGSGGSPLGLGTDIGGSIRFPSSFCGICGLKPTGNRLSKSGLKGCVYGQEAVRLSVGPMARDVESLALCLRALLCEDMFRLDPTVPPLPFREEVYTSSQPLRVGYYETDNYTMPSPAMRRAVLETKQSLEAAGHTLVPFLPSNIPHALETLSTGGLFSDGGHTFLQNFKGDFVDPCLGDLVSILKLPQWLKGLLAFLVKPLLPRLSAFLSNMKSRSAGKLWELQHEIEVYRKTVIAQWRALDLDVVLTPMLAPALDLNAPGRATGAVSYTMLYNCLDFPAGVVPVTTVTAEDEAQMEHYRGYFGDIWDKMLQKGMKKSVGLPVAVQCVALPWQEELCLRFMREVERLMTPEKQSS

[2] = biological target: T2, Fatty-acid amide hydrolase 1 (Rattus norvegicus) (UniProt P97612); assay: Inhibition of rat FAAH at 10 uM
T2 sequence (whole entry): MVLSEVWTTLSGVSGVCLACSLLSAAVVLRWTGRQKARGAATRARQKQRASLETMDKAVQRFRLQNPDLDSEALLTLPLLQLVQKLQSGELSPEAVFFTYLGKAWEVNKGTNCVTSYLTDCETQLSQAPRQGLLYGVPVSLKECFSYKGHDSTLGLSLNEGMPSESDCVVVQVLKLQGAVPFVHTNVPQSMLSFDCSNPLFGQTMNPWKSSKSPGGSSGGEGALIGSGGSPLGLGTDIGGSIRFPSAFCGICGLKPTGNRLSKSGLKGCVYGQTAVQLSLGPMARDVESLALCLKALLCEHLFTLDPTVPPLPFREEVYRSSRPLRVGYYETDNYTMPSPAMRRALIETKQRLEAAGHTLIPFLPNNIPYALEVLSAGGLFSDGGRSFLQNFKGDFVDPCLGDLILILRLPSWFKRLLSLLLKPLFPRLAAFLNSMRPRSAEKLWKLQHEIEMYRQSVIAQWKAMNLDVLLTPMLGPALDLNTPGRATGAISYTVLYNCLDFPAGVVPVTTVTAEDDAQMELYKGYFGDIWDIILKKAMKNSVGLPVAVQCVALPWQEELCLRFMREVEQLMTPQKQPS

[3] = biological target: T1, Fatty-acid amide hydrolase 1; assay: Inhibition of human FAAH-mediated hydrolysis of [3H]AEA
[4] = biological target: T3, Fatty-acid amide hydrolase 1 (Rattus norvegicus, UniProt P97612); assay: Inhibition of rat FAAH
T3 sequence (P97612 whole entry): T2 sequence (whole entry)

[5] = Toxicity in rat; type: organism-based; settings: in vivo

| SMILES | IC50 [1] [nM] | inhibition [2] [%] | IC50 [3] [nM] | IC50 [4] [nM] | LD50 [5] [mg/kg] |
| --- | --- | --- | --- | --- | --- |
| CCNC(=O)N1CCN(CCCC(c2ccc(F)cc2)c2ccc(F)cc2)CC1 [AMPEROZIDE] | 1340 | 50 | 455 | – | – |
| COC(=O)Nc1cccc(OC(=O)Nc2cccc(C)c2)c1 | 377 | – | 152 | 77 | > 8000 |
